This is an account of results in paper PMC11995724, “Antibiotic target discovery by integrated phenotypic and activity-based profiling of electrophilic fragments” (Cell chemical biology, 2025).

Broadly, the viability is a read-out of living cells in per cent, often relative to untreated cells.

The structures appear in SMILES notation. Where a name gives a salt, the structure may show the parent alone.

The data set is described as follows: in vitro. As to conditions: human, hek293t cells.
In the case of `CCSc1nnc(NC(=O)CCl)s1` [5-N22, 2-chloro-N-[5-(ethylsulfanyl)-1,3,4-thiadiazol-2-yl]acetamide], the viability at 48 h, 25 µM came to 7.36%. `Cc1ccc(CNC(=O)C(C)Cl)cc1` (stereo not drawn) [5-O03, 2-chloro-N-[(4-methylphenyl)methyl]propanamide]: the viability at 48 h, 25 µM worked out at 94.7%. `O=C(CCl)N1CCN(Cc2ccon2)CC1` [5-O04, 2-chloro-1-{4-[(1,2-oxazol-3-yl)methyl]piperazin-1-yl}ethan-1-one]: the viability at 48 h, 25 µM amounted to 104%.

With `O=C(CCl)NCCc1cccc(Cl)c1` [5-O05, 2-chloro-N-[2-(3-chlorophenyl)ethyl]acetamide], the viability at 48 h, 25 µM came to 36.9%. On to `CC(NC(=O)CCl)c1cn(-c2ccccc2)nn1` (stereo not drawn) [5-O06, 2-chloro-N-[1-(1-phenyl-1H-1,2,3-triazol-4-yl)ethyl]acetamide], for which the viability at 48 h, 25 µM stood at 4.63%.

Turning to `O=C(CCl)NC1CCN(C(=O)c2ccco2)c2ccccc21` (stereo not drawn) [5-O07, 2-chloro-N-[1-(furan-2-carbonyl)-1,2,3,4-tetrahydroquinolin-4-yl]acetamide], the viability at 48 h, 25 µM was determined as 1.59%. As to `CC1CC(NC(=O)CCl)C(=O)N1c1cnn(C)c1` (stereo not drawn) [5-O08, 2-chloro-N-[5-methyl-1-(1-methyl-1H-pyrazol-4-yl)-2-oxopyrrolidin-3-yl]acetamide], the viability at 48 h, 25 µM is 100%.

As to `O=C(CCl)NC1CCCc2cn(C3CCCC3)nc21` (stereo not drawn) [5-O09, 2-chloro-N-(2-cyclopentyl-4,5,6,7-tetrahydro-2H-indazol-7-yl)acetamide], the viability at 48 h, 25 µM was 20.7%. For `C#Cc1cccc(N(Cc2cc3n(n2)CCCO3)C(=O)CCl)c1` [5-O10, 2-chloro-N-(3-ethynylphenyl)-N-({5H,6H,7H-pyrazolo[3,2-b][1,3]oxazin-2-yl}methyl)acetamide], the viability at 48 h, 25 µM was determined as 0.703%. Turning to `COc1ccc(CNC(=O)CCl)cc1OC` [5-O11, 2-chloro-N-[(3,4-dimethoxyphenyl)methyl]acetamide], the viability at 48 h, 25 µM was 23.8%. As for `CS(=O)(=O)N1CCC(N(CC(F)F)C(=O)CCl)CC1` [5-O12, 2-chloro-N-(2,2-difluoroethyl)-N-(1-methanesulfonylpiperidin-4-yl)acetamide], the viability at 48 h, 25 µM was found to be 1.77%. Regarding `O=C(CCl)Nc1ccnn1Cc1cccs1` [5-O13, 2-chloro-N-{1-[(thiophen-2-yl)methyl]-1H-pyrazol-5-yl}acetamide], the viability at 48 h, 25 µM worked out at 0.591%. Take `CCC(NC(=O)CCl)c1nc(C)n[nH]1` (stereo not drawn) [5-O14, 2-chloro-N-[1-(3-methyl-1H-1,2,4-triazol-5-yl)propyl]acetamide]: the viability at 48 h, 25 µM came to 96.8%. Take `CC1CN(S(=O)(=O)c2ccc(NC(=O)CCl)cc2)CC(C)O1` (stereo not drawn) [5-O15, 2-chloro-N-{4-[(2,6-dimethylmorpholin-4-yl)sulfonyl]phenyl}acetamide]: the viability at 48 h, 25 µM is 1.43%. Regarding `COc1ccccc1C1CSCCCN1C(=O)CCl` (stereo not drawn) [5-O16, 2-chloro-1-[3-(2-methoxyphenyl)-1,4-thiazepan-4-yl]ethan-1-one], the viability at 48 h, 25 µM turned out to be 78.1%. Regarding `COc1ccc(N(Cc2cccs2)C(=O)CCl)cc1` [5-O17, 2-chloro-N-(4-methoxyphenyl)-N-[(thiophen-2-yl)methyl]acetamide], the viability at 48 h, 25 µM came out at 0.692%. On to `O=C(CCl)N1CC(NC(=O)C(F)(F)F)CCC1C(F)(F)F` (stereo not drawn) [5-O18, N-[1-(2-chloroacetyl)-6-(trifluoromethyl)piperidin-3-yl]-2,2,2-trifluoroacetamide], for which the viability at 48 h, 25 µM was determined as 6.17%.

Regarding `CC(=O)c1ccccc1NC(=O)C(C)Cl` (stereo not drawn) [5-O19, N-(2-acetylphenyl)-2-chloropropanamide], the viability at 48 h, 25 µM was determined as 90.1%. With `COC1CCC(N(Cc2cc(C)oc2C)C(=O)CCl)CC1` (stereo not drawn) [5-O20, 2-chloro-N-[(2,5-dimethylfuran-3-yl)methyl]-N-(4-methoxycyclohexyl)acetamide], the viability at 48 h, 25 µM is 2.21%. To `CC(Cl)C(=O)NC1CCCCCC1` (stereo not drawn) [5-O21, 2-chloro-N-cycloheptylpropanamide] belongs 105%; to `COc1ccc(CC2CCN2C(=O)C(C)Cl)cc1` (stereo not drawn) [5-O22, 2-chloro-1-{2-[(4-methoxyphenyl)methyl]azetidin-1-yl}propan-1-one], 88.3%; to `O=C(CCl)N(Cc1cc(F)ccc1F)CC1CCOCC1` [5-P03, 2-chloro-N-[(2,5-difluorophenyl)methyl]-N-[(oxan-4-yl)methyl]acetamide], 0.456%. With `N#Cc1ccccc1NC(=O)CCl` [5-P04, 2-chloro-N-(2-cyanophenyl)acetamide], the viability at 48 h, 25 µM is 0.525%. For the compound `CNC(=O)c1cc(OC2CCCN(C(=O)CCl)C2)ccn1` (stereo not drawn) [5-P05, 4-{[1-(2-chloroacetyl)piperidin-3-yl]oxy}-N-methylpyridine-2-carboxamide], the viability at 48 h, 25 µM amounted to 1.84%. The figure for `O=C(CCl)NCc1ccccc1Cn1cccn1` [5-P06, 2-chloro-N-({2-[(1H-pyrazol-1-yl)methyl]phenyl}methyl)acetamide] is 94%. For `N#CCCN(C(=O)CCl)c1ccccc1F` [5-P07, 2-chloro-N-(2-cyanoethyl)-N-(2-fluorophenyl)acetamide], the viability at 48 h, 25 µM turned out to be 1.04%. With `CC(C1CC1)N(CC(F)(F)F)C(=O)CCl` (stereo not drawn) [5-P08, 2-chloro-N-(1-cyclopropylethyl)-N-(2,2,2-trifluoroethyl)acetamide], the viability at 48 h, 25 µM amounted to 90.7%. In the case of `O=C(CCl)NC1CCN(c2ccncc2)CC1` [5-P09, 2-chloro-N-[1-(pyridin-4-yl)piperidin-4-yl]acetamide hydrochloride], the viability at 48 h, 25 µM turned out to be 48.1%. For `Cc1cccc(NC(=O)C(C)Cl)c1` (stereo not drawn) [5-P10, 2-chloro-N-(3-methylphenyl)propanamide], the viability at 48 h, 25 µM was found to be 96.2%. `CC(NC(=O)CCl)c1cc(C(F)(F)F)[nH]n1` (stereo not drawn) [5-P11, 2-chloro-N-{1-[5-(trifluoromethyl)-1H-pyrazol-3-yl]ethyl}acetamide]: the viability at 48 h, 25 µM was 0.786%. For the compound `CC(C)c1ccc(Cn2[nH]ccc2=NC(=O)CCl)cc1` [5-P12, 2-chloro-N-(2-{[4-(propan-2-yl)phenyl]methyl}-2,3-dihydro-1H-pyrazol-3-ylidene)acetamide], the viability at 48 h, 25 µM is -0.215%. To `CC(=O)NCc1ccc(C2CCCN2C(=O)CCl)o1` (stereo not drawn) [5-P13, N-({5-[1-(2-chloroacetyl)pyrrolidin-2-yl]furan-2-yl}methyl)acetamide] belongs 0.652%; to `CC(Cl)C(=O)Nc1cccc(C(F)(F)F)c1` (stereo not drawn) [5-P14, 2-chloro-N-[3-(trifluoromethyl)phenyl]propanamide], 90.7%; to `CC(Cl)C(=O)NCc1ncnn1C(C)C` (stereo not drawn) [5-P15, 2-chloro-N-{[1-(propan-2-yl)-1H-1,2,4-triazol-5-yl]methyl}propanamide], 125%. As for `CC(=O)c1ccc(S(=O)(=O)N2CCN(C(=O)CCl)CC2)cc1` [5-P16, 1-[4-(4-acetylbenzenesulfonyl)piperazin-1-yl]-2-chloroethan-1-one], the viability at 48 h, 25 µM worked out at 1.74%. Regarding `CC(Cl)C(=O)N(Cc1ccc(Cl)cc1)Cc1cnn(C)c1` (stereo not drawn) [5-P17, 2-chloro-N-[(4-chlorophenyl)methyl]-N-[(1-methyl-1H-pyrazol-4-yl)methyl]propanamide], the viability at 48 h, 25 µM is 116%.
